Values quoted from earlier work in patent US20070191305A1, “Chromone complexes” (priority 2004, published 2007).

How the values were obtained:
[1] = over the entire pH range

| SMILES | antioxidant activity amongst the hydroxyflavones investigated [1] | cell differentiation (keratinocyte cultures) | lipid production (keratinocyte cultures) |
| --- | --- | --- | --- |
| O=c1c(O)c(-c2ccc(O)c(O)c2)oc2cc(O)cc(O)c12 [Quercetin, 3,3′,4′,5,7-pentahydroxyflavone] | greatest activity | – | – |
| O=C1CCOc2ccccc21 [Example 4-chromanone, 4-chromanone] | – | promotes cell differentiation | stimulates lipid production |
